“And” between values parts separate entries of the source, which are not always exact repeats. Equal entries are not always repeated. Structures can show the parent of a compound that is named as a salt. Where two headings read alike, the source gives them in different places.
Columns and labels:
[1] = tested on: erythroid progenitor cells (EPCs); test: Fetal hemoglobin (HbF) ELISA in day 7 erythroid progenitor cells; format: cell-based, human; settings: Homo sapiens, Erythroid progenitor cell, HbF ELISA, day 7 EPCs, 5 days; read-out: EPC ELISA (pEC50 category) (converted);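 further: for fetal hemoglobin induction normalized to vehicle-treated cells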
In short: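 Read-out was OD450 from an HRP/TMB sandwich ELISA on lysates, normalized to DMSO-only control wells. Thawed day 7 EPCs from human marrow CD34+ cells had been treated for 5 days at 37° C with Compound A, 22 concentrations […].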

[2] = biological target: DNMT1 (Homo sapiens, UniProt P26358); test: DNMT1 biochemical activity, breaklight assay and/or SPA assay
Chain of DNMT1 (P26358 whole entry, looked up): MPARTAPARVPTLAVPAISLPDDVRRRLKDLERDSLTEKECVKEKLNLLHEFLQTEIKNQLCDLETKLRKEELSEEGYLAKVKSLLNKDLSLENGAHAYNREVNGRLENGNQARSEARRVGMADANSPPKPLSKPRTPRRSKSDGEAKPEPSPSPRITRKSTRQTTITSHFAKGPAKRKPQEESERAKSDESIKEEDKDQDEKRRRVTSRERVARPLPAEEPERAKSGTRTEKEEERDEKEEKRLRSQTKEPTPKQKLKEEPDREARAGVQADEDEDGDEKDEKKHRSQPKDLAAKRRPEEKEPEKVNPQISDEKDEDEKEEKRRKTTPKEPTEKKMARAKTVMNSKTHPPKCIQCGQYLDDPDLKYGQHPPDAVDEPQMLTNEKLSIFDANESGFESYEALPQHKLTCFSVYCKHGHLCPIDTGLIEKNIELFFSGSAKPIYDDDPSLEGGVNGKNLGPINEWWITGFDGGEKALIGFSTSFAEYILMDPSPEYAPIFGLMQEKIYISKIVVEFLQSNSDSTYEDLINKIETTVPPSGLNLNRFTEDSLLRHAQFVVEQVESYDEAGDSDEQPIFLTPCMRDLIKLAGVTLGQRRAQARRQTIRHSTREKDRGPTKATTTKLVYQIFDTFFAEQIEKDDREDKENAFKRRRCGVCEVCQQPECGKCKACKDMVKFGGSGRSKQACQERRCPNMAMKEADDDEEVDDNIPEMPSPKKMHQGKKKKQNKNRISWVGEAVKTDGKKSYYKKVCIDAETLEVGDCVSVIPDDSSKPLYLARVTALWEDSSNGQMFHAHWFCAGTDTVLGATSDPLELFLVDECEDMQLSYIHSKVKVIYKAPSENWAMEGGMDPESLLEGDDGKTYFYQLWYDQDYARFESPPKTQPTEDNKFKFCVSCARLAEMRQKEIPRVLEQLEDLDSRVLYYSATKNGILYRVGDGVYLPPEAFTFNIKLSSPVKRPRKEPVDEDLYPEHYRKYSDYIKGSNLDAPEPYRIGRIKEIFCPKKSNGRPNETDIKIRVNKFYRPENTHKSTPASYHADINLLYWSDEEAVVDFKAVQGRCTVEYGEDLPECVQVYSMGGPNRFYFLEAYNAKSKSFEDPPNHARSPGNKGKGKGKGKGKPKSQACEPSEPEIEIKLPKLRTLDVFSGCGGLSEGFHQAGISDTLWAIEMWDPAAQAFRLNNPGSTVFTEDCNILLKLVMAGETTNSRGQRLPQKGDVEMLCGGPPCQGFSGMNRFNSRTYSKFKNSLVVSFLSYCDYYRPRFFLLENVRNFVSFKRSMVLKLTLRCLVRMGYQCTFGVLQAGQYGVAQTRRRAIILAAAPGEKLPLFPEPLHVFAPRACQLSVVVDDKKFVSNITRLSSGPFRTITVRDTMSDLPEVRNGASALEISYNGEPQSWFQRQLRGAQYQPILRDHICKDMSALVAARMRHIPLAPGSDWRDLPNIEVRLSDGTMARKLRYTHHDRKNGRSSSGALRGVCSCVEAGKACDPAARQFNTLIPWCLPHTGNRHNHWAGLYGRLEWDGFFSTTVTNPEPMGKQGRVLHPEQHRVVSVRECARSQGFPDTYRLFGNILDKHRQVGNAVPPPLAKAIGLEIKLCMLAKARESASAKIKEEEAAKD

[3] = binned activity in either the breaklight or the SPA assay, read-out: DNMT1 BioChemical (pIC50 category) (converted)
[4] = binned activity in either the breaklight or the SPA assay
[5] = breaklight assay and/or SPA assay, repeated experimental runs, read-out: average pIC50 against DNMT1 (converted)

CCc1c(C#N)c(SCc2ccc(CN)cc2)nc(N(C)C)c1C#N [Example 272, 2-((4-(Aminomethyl)benzyl)thio)-6-(dimethylamino)-4-ethylpyridine-3,5-dicarbonitrile, Hydrochloride]
EC50 [1]: > 31.6 µM | IC50 [2, 3]: 1 to 31.6 µM

CCc1c(C#N)c(SCc2ccc(NC(C)=O)cc2)nc(N(C)C)c1C#N [Example 273]
EC50 [1]: 1 to 31.6 µM | IC50 [2, 3]: 0.316 to 1 µM

CCc1c(C#N)c(SC(C(N)=O)c2ccccc2)nc(N2CCC(OC(=O)[C@@H](N)C(C)C)CC2)c1C#N (stereo partly drawn) [Example 274, 1-(6-((2-Amino-2-oxo-1-phenylethyl)thio)-3,5-dicyano-4-ethylpyridin-2-yl)piperidin-4-yl (2S)-2-amino-3-methylbutanoate]
EC50 [1]: < 0.316 µM | DNMT1 BioChemical (pIC50 category) [2, 4]: D (Category D: ≥6.5)

CCc1c(C#N)c(SC(C(N)=O)c2ccccc2)nc(N(C)CCOC(=O)[C@@H](N)C(C)C)c1C#N (stereo partly drawn) [Example 275]
EC50 [1]: 0.316 to 1 µM | IC50 [2, 3]: 0.316 to 1 µM

CCc1c(C#N)c(SC(C(N)=O)c2ccccc2)nc(SC(C(N)=O)c2ccccc2)c1C#N (stereo not drawn) [Example 276, 2,2′-((3,5-Dicyano-4-ethylpyridine-2,6-diyl)bis(sulfanediyl))bis(2-phenylacetamide)]
EC50 [1]: > 31.6 µM | IC50 [2, 3]: 0.316 to 1 µM

CCc1c(C#N)c(SC(C(N)=O)c2ccccc2)nc(N2CC(COC(=O)[C@@H](N)C(C)C)C2)c1C#N (stereo partly drawn) [Example 277]
EC50 [1]: 1 to 31.6 µM | DNMT1 BioChemical (pIC50 category) [2, 4]: D (Category D: ≥6.5)

CCc1c(C#N)c(SCc2ccc(CNC(=O)CO)cc2)nc(N(C)C)c1C#N [Example 278, N-(4-(((3,5-Dicyano-6-(dimethylamino)-4-ethylpyridin-2-yl)thio)methyl)benzyl)-2-hydroxyacetamide]
EC50 [1]: 1 to 31.6 µM | DNMT1 BioChemical (pIC50 category) [2, 4]: D (Category D: ≥6.5)

CCc1c(C#N)c(SCc2ccc(CNC(=O)CCN)cc2)nc(N(C)C)c1C#N [Example 279, 3-Amino-N-(4-(((3,5-dicyano-6-(dimethylamino)-4-ethylpyridin-2-yl)thio)methyl)benzyl)propanamide]
EC50 [1]: > 31.6 µM | IC50 [2, 3]: 0.316 to 1 µM | IC50 [2, 5]: ≥ 1 µM and 1 µM

CCc1c(C#N)c(SC(C(N)=O)c2ccccc2)nc(N2CC(N)C2)c1C#N (stereo not drawn) [Example 281, 2-((6-(3-Aminoazetidin-1-yl)-3,5-dicyano-4-ethylpyridin-2-yl)thio)-2-phenylacetamide]
EC50 [1]: 0.316 to 1 µM | DNMT1 BioChemical (pIC50 category) [2, 4]: D (Category D: ≥6.5)

CCc1c(C#N)c(SCc2ccc(CNC(C)=O)cc2)nc(N2CC(OC(=O)[C@@H](N)C(C)C)C2)c1C#N [Example 282, (S)-1-(6-((4-(Acetamidomethyl)benzyl)thio)-3,5-dicyano-4-ethylpyridin-2-yl)azetidin-3-yl 2-amino-3-methylbutanoate, Trifluoroacetic Acid Salt]
EC50 [1]: 1 to 31.6 µM | DNMT1 BioChemical (pIC50 category) [2, 4]: D (Category D: ≥6.5)

CCc1c(C#N)c(C)nc(SC(C(N)=O)c2ccccc2)c1C#N (stereo not drawn) [Example 283, 2-((3,5-Dicyano-4-ethyl-6-methylpyridin-2-yl)thio)-2-phenylacetamide]
EC50 [1]: 1 to 31.6 µM | IC50 [2, 3]: 0.316 to 1 µM | IC50 [2, 5]: 0.316 to 1 µM and 0.631 µM

CCc1c(C#N)c(C)nc(SCc2ccc(CNC(C)=O)cc2)c1C#N [Example 284, N-(4-(((3,5-Dicyano-4-ethyl-6-methylpyridin-2-yl)thio)methyl)benzyl)acetamide]
EC50 [1]: > 31.6 µM | IC50 [2, 3]: 0.316 to 1 µM

CCc1c(C#N)c(SCc2cnn(CC(N)=O)c2)nc(N(C)C)c1C#N [Example 285, 2-(4-(((3,5-Dicyano-6-(dimethylamino)-4-ethylpyridin-2-yl)thio)methyl)-1H-pyrazol-1-yl)acetamide]
EC50 [1]: 1 to 31.6 µM | IC50 [2, 3]: 0.316 to 1 µM

CCc1c(C#N)c(SC(C(N)=O)c2ccccc2)nc(N2CCC(NC(=O)CO)CC2)c1C#N (stereo not drawn) [Example 286, N-(1-(6-((2-Amino-2-oxo-1-phenylethyl)thio)-3,5-dicyano-4-ethylpyridin-2-yl)piperidin-4-yl)-2-hydroxyacetamide]
EC50 [1]: 1 to 31.6 µM | DNMT1 BioChemical (pIC50 category) [2, 4]: D (Category D: ≥6.5) | IC50 [2, 5]: 0.316 to 1 µM and 0.316 µM

CCc1c(C#N)c(SCc2ccc(NS(C)(=O)=O)cc2)nc(N(C)C)c1C#N [Example 287, N-(4-(((3,5-Dicyano-6-(dimethylamino)-4-ethylpyridin-2-yl)thio)methyl)phenyl) methanesulfonamide]
EC50 [1]: 1 to 31.6 µM | IC50 [2, 3]: 0.316 to 1 µM

CCc1c(C#N)c(SC(C(N)=O)c2ccccc2)nc(N2CC(NC(=O)CO)C2)c1C#N (stereo not drawn) [Example 288, N-(1-(6-((2-Amino-2-oxo-1-phenylethyl)thio)-3,5-dicyano-4-ethylpyridin-2-yl)azetidin-3-yl)-2-hydroxyacetamide]
EC50 [1]: 1 to 31.6 µM | DNMT1 BioChemical (pIC50 category) [2, 4]: D (Category D: ≥6.5)

CCc1c(C#N)c(SCc2ccc(CNC(C)=O)cc2)nc(N2CCC(OC(=O)[C@@H](N)C(C)C)CC2)c1C#N [Example 289, (S)-1-(6-((4-(Acetamidomethyl)benzyl)thio)-3,5-dicyano-4-ethylpyridin-2-yl)piperidin-4-yl 2-amino-3-methylbutanoate]
EC50 [1]: 1 to 31.6 µM | IC50 [2, 3]: 0.316 to 1 µM

CCc1c(C#N)c(SCc2ccc(CNC(C)=O)cc2)nc(N2CCC(NC(C)=O)CC2)c1C#N [Example 290, N-(1-(6-((4-(Acetamidomethyl)benzyl)thio)-3,5-dicyano-4-ethylpyridin-2-yl)piperidin-4-yl)acetamide]
EC50 [1]: 1 to 31.6 µM | IC50 [2, 3]: 0.316 to 1 µM

CCc1c(C#N)c(SCc2ccc(CC(=O)NCCO)cc2)nc(N(C)C)c1C#N [Example 291, 2-(4-(((3,5-Dicyano-6-(dimethylamino)-4-ethylpyridin-2-yl)thio)methyl)phenyl)-N-(2-hydroxyethyl)acetamide]
EC50 [1]: 1 to 31.6 µM | IC50 [2, 3]: 0.316 to 1 µM

CCc1c(C#N)c(SCc2ccc(C(=O)NCCO)cc2)nc(N(C)C)c1C#N [Example 292, 4-(((3,5-Dicyano-6-(dimethylamino)-4-ethylpyridin-2-yl)thio)methyl)-N-(2-hydroxyethyl)benzamide]
EC50 [1]: 1 to 31.6 µM | IC50 [2, 3]: 0.316 to 1 µM

CCc1c(C)c(N2CCNCC2)nc(SC(C(N)=O)c2ccccc2)c1C#N (stereo not drawn) [Example 293, 2-((3-Cyano-4-ethyl-5-methyl-6-(piperazin-1-yl)pyridin-2-yl)thio)-2-phenylacetamide]
EC50 [1]: > 31.6 µM | IC50 [2, 3]: 0.316 to 1 µM

CCc1c(C#N)c(SCc2ccc(-n3ccnc3)cc2)nc(N2CCCN(C)CC2)c1C#N [Example 294, 2-((4-(1H-Imidazol-1-yl)benzyl)thio)-4-ethyl-6-(4-methyl-1,4-diazepan-1-yl)pyridine-3,5-dicarbonitrile]
EC50 [1]: > 31.6 µM | IC50 [2, 3]: 0.316 to 1 µM

CCc1c(C#N)c(SCc2ccc(C#N)c(C)c2)nc(N2CCCN(C)CC2)c1C#N [Example 295, 2-((4-Cyano-3-methylbenzyl)thio)-4-ethyl-6-(4-methyl-1,4-diazepan-1-yl)pyridine-3,5-dicarbonitrile]
EC50 [1]: > 31.6 µM | IC50 [2, 3]: 0.316 to 1 µM

CCc1c(C#N)c(SCc2ccc(NC(=O)OC(C)(C)C)cc2)nc(N2CCCN(C)CC2)c1C#N [Example 296, tert-Butyl (4-(((3,5-dicyano-4-ethyl-6-(4-methyl-1,4-diazepan-1-yl)pyridin-2-yl)thio)methyl)phenyl)carbamate]
EC50 [1]: > 31.6 µM | IC50 [2, 3]: 0.316 to 1 µM

CCc1c(C#N)c(SCc2ccc(N)cc2)nc(N2CCCN(C)CC2)c1C#N [Example 297, 2-((4-Aminobenzyl)thio)-4-ethyl-6-(4-methyl-1,4-diazepan-1-yl)pyridine-3,5-dicarbonitrile]
EC50 [1]: > 31.6 µM | IC50 [2, 3]: 0.316 to 1 µM

CCc1c(C#N)c(SCc2ccc(NC(C)=O)cc2)nc(N2CCCN(C)CC2)c1C#N [Example 298, N-(4-(((3,5-Dicyano-4-ethyl-6-(4-methyl-1,4-diazepan-1-yl)pyridin-2-yl)thio)methyl)phenyl)acetamide]
EC50 [1]: < 0.316 µM | DNMT1 BioChemical (pIC50 category) [2, 4]: D (Category D: ≥6.5)

CCc1c(C#N)c(SCc2ccc(NS(C)(=O)=O)cc2)nc(N2CCCN(C)CC2)c1C#N [Example 299, N-(4-(((3,5-Dicyano-4-ethyl-6-(4-methyl-1,4-diazepan-1-yl)pyridin-2-yl)thio)methyl)phenyl) methanesulfonamide]
EC50 [1]: 0.316 to 1 µM | DNMT1 BioChemical (pIC50 category) [2, 4]: D (Category D: ≥6.5)

CCc1c(C#N)c(SCc2ccc(N)nc2)nc(N2CCCN(C)CC2)c1C#N [Example 300, 2-(((6-Aminopyridin-3-yl)methyl)thio)-4-ethyl-6-(4-methyl-1,4-diazepan-1-yl)pyridine-3,5-dicarbonitrile]
EC50 [1]: 1 to 31.6 µM | IC50 [2, 3]: 0.316 to 1 µM

CCc1c(C#N)c(SCc2ccc(NC(=O)CO)cc2)nc(N2CCCN(C)CC2)c1C#N [Example 301, N-(4-(((3,5-Dicyano-4-ethyl-6-(4-methyl-1,4-diazepan-1-yl)pyridin-2-yl)thio)methyl)phenyl)-2-hydroxyacetamide]
EC50 [1]: 0.316 to 1 µM | DNMT1 BioChemical (pIC50 category) [2, 4]: D (Category D: ≥6.5)

CCc1c(C#N)c(SCc2ccc(NC(=O)CN)cc2)nc(N2CCCN(C)CC2)c1C#N [Example 302, 2-Amino-N-(4-(((3,5-dicyano-4-ethyl-6-(4-methyl-1,4-diazepan-1-yl)pyridin-2-yl)thio)methyl)phenyl)acetamide]
EC50 [1]: > 31.6 µM | IC50 [2, 3]: 0.316 to 1 µM

CCc1c(C#N)c(SC(C(N)=O)c2ccccc2)nc(N2CC3CC2CN3C)c1C#N (stereo not drawn) [Example 303, 2-((3,5-Dicyano-4-ethyl-6-(5-methyl-2,5-diazabicyclo[2.2.1]heptan-2-yl)pyridin-2-yl)thio)-2-phenylacetamide]
EC50 [1]: 0.316 to 1 µM | IC50 [2, 3]: 0.316 to 1 µM | IC50 [2, 5]: 0.316 to 1 µM and 0.631 µM

CCc1c(C#N)c(SC(C(N)=O)c2ccccc2)nc(N2CCN(C(=O)c3ccc(Br)cc3)CC2)c1C#N (stereo not drawn) [Example 310, 2-((6-(4-(4-Bromobenzoyl)piperazin-1-yl)-3,5-dicyano-4-ethylpyridin-2-yl)thio)-2-phenylacetamide]
EC50 [1]: < 0.316 µM | IC50 [2, 3]: 1 to 31.6 µM | IC50 [2, 5]: ≥ 1 µM and 2 µM

From patent US10975056B2 (GlaxoSmithKline Intellectual Property Development Limited, priority 2016, dated 2021)
